Laboratory results from ChEMBL document CHEMBL5120914, “An O-Benzyl Phosphonamidate Prodrug of Tenofovir for the Treatment of Hepatitis B Virus Infection” (J Med Chem, 2022).

Key:
[1] = Acute toxicity in overnight fasted Kunming mouse assessed as liver tissue damage at 1.5 g/Kg, IG measured on day 15; type: tissue-based; details: in vivo, po, 1500 mg/kg
[2] = Toxicity in duck assessed as liver hemorrhage at 2.5 to 10 mg/kg, IG administered once daily for first 10 days followed by 10 to 40 mg/kg, IG for another 18 days by hematoxyin-eosin staining based light microscopic analysis; type: organism-based; details: anas platyrhynchos, in vivo, po, 672 h, dose 2.5-40 mg/kg, time 28 day
[3] = Toxicity in duck assessed as inflammatory response in liver at 2.5 to 10 mg/kg, IG administered once daily for first 10 days followed by 10 to 40 mg/kg, IG for another 18 days by hematoxyin-eosin staining based light microscopic analysis; type: organism-based; details: anas platyrhynchos, in vivo, po, 672 h, dose 2.5-40 mg/kg, time 28 day
[4] = Acute toxicity in overnight fasted Kunming mouse assessed as side effects at 1.5 g/Kg, IG measured for 15 days; details: in vivo, po, 1500 mg/kg, 360 h, time 15 day
[5] = Toxicity in duck assessed as animal survival at 2.5 to 10 mg/kg, IG administered once daily for first 10 days followed by 10 to 40 mg/kg, IG for another 18 days; type: organism-based; details: anas platyrhynchos, in vivo, po, 672 h, dose 2.5-40 mg/kg, time 28 day
[6] = Acute toxicity in overnight fasted Kunming mouse assessed as heart tissue damage at 1.5 g/Kg, IG measured on day 15; details: in vivo, po, 1500 mg/kg
[7] = Acute toxicity in overnight fasted Kunming mouse assessed as animal survival at 1.5 g/Kg, IG measured for 15 days; details: in vivo, po, 1500 mg/kg, 360 h, time 15 day
Hepatitis B virus [8] = assay: Antiviral activity against Hepatitis B virus infected in human HepG2.2.15 cells assessed as inhibition of viral DNA replication at 1 uM measured after 6 days by FQ-PCR analysis relative to control; type: functional, HepG2 2.2.15; set-up: scale not given: the % may be the effect or the level left; details: time 6 day
[9] = Metabolic stability in human plasma assessed as half life measured upto 24 hrs by HPLC analysis; type: ADME, cell-free
[10] = Toxicity in duck assessed as liver necrosis at 2.5 to 10 mg/kg, IG administered once daily for first 10 days followed by 10 to 40 mg/kg, IG for another 18 days by hematoxyin-eosin staining based light microscopic analysis; type: organism-based; details: anas platyrhynchos, in vivo, po, 672 h, dose 2.5-40 mg/kg, time 28 day
[11] = Acute toxicity in overnight fasted Kunming mouse assessed as kidney tissue damage at 1.5 g/Kg, IG measured on day 15; type: tissue-based; details: in vivo, po, 1500 mg/kg
Hepatitis B virus [12] = assay: Antiviral activity against Hepatitis B virus infected in duck assessed as log reduction in viral DNA replication in serum at 2.5 to 10 mg/kg, IG administered once daily for first 10 days followed by 40 mg/kg, IG administered for another 18 days; type: functional; details: dose 2.5-40 mg/kg, time 28 day
Hepatitis B virus [13] = assay: Antiviral activity against Hepatitis B virus infected in duck assessed as log reduction in viral DNA replication in serum at 2.5 to 10 mg/kg, IG administered once daily for first 10 days followed by 20 mg/kg, IG administered for another 18 days; type: functional; details: dose 2.5-20 mg/kg, time 28 day
[14] = Acute toxicity in overnight fasted Kunming mouse assessed as spleen tissue damage at 1.5 g/Kg, IG measured on day 15; type: tissue-based; details: in vivo, po, 1500 mg/kg
[15] = Metabolic stability in dog plasma assessed as half life measured upto 24 hrs by HPLC analysis; type: ADME, cell-free, Canis lupus familiaris
[16] = Toxicity in duck assessed as body weight loss at 2.5 to 10 mg/kg, IG administered once daily for first 10 days followed by 10 to 40 mg/kg, IG for another 18 days; type: organism-based; details: anas platyrhynchos, in vivo, po, 672 h, dose 2.5-40 mg/kg, time 28 day
[17] = Acute toxicity in overnight fasted Kunming mouse assessed as lung tissue damage at 1.5 g/Kg, IG measured on day 15; type: tissue-based; details: in vivo, po, 1500 mg/kg
[18] = Metabolic stability in rat plasma assessed as half life measured upto 25 mins by HPLC analysis; type: ADME, cell-free
[19] = Drug metabolism in Sprague-Dawley rat liver assessed as AUC(0 to t) of TFV-DP at 20 mg/kg, IG meaured upto 12 hrs by HPLC-MS/MS analysis; type: ADME, organism-based; details: in vivo, po
[20] = Toxicity in duck assessed as body weight gain at 2.5 to 10 mg/kg, IG administered once daily for first 10 days followed by 10 to 40 mg/kg, IG for another 18 days; type: organism-based; details: anas platyrhynchos, in vivo, po, 672 h, dose 2.5-40 mg/kg, time 28 day
Hepatitis B virus [21] = assay: Antiviral activity against Hepatitis B virus infected in human HepG2.2.15 cells assessed as inhibition of viral DNA replication measured for 9 days by FQ-PCR analysis; type: functional, organism-based; details: HepG2 2.2.15, 216 h
[22] = Cytotoxicity against human HepG2 cells assessed as reduction in cell growth incubated for 3 days by MTT assay; type: toxicity, cell-based; details: time 3 day
[23] = Acute toxicity in overnight fasted Kunming mouse assessed as change in body weight at 1.5 g/Kg, IG measured for 15 days; details: in vivo, po, 1500 mg/kg, 360 h, time 15 day
Hepatitis B virus [24] = assay: Antiviral activity against Hepatitis B virus infected in duck assessed as log reduction in viral DNA replication in serum at 2.5 to 10 mg/kg, IG administered once daily for first 10 days followed by 10 mg/kg, IG administered for another 18 days; type: functional; details: dose 2.5-10 mg/kg, time 28 day

In the case of Cc1ccccc1COP(=O)(CO[C@H](C)Cn1cnc2c(N)ncnc21)N[C@@H](C)C(=O)OC(C)C (stereo in doubt; 1a), the Activity [1] is reported as “Non-Toxic”, the Activity [2] is reported as “Non-Toxic” and the Activity [3] is reported as “Non-Toxic”. The Activity [4] was “Non-Toxic”, the Activity [5] was “Non-Toxic” and the Activity [6] was “Non-Toxic”. The Activity [7] was “Non-Toxic”, the Activity (Hepatitis B virus [8]; 144 h, 1 µM) was 81.72% and the half-life [9] was over 24 h. The Activity [10] was “Non-Toxic”, the Activity [11] was “Non-Toxic” and the Activity (Hepatitis B virus [12]) was 2.9. The Activity (Hepatitis B virus [13]) was 3.6, the Activity [14] was “Non-Toxic” and the half-life [15] was over 24 h. The Activity [16] was “Non-Toxic”, the Activity [17] was “Non-Toxic” and the half-life [18] was under 5 min. For the same compound, the AUCt [19] was 781.6 ng·h/g, the Activity [20] was “Toxic” and the EC50 (Hepatitis B virus [21]) was 0.024 µM. The CC50 at 72 h [22] was over 500 µM, the Activity [23] was “Non-Toxic” and the Activity (Hepatitis B virus [24]) was 3.
CC(C)OC(=O)[C@H](C)NP(=O)(CO[C@H](C)Cn1cnc2c(N)ncnc21)OCc1ccc([N+](=O)[O-])cc1 (some centres not stated) showed an Activity (Hepatitis B virus [8]) of 22.15% and a CC50 at 72 h [22] of over 500 µM.
Work on CC(C)OC(=O)[C@H](C)NP(=O)(CO[C@H](C)Cn1cnc2c(N)ncnc21)OCc1cccc(F)c1 (some centres not stated) yielded an Activity (Hepatitis B virus [8]) of 68.11%, an EC50 (Hepatitis B virus [21]) of 0.027 µM and a CC50 at 72 h [22] of over 500 µM.
With CCOC(=O)[C@H](C)NP(=O)(CO[C@H](C)Cn1cnc2c(N)ncnc21)OCc1ccccc1C (some centres not stated) the Activity (Hepatitis B virus [8]) was 41.27% and the CC50 at 72 h [22] was over 500 µM.
CC(C)OC(=O)[C@H](C)NP(=O)(CO[C@H](C)Cn1cnc2c(N)ncnc21)OCc1cccc(Br)c1 (some centres not stated) showed an Activity (Hepatitis B virus [8]) of 31.94% and a CC50 at 72 h [22] of over 500 µM.
CC(C)OC(=O)[C@H](C)NP(=O)(CO[C@H](C)Cn1cnc2c(N)ncnc21)OCc1ccccc1C(F)(F)F (some centres not stated) showed an Activity (Hepatitis B virus [8]) of 46.76% and a CC50 at 72 h [22] of over 500 µM.
For Cc1ccc(COP(=O)(CO[C@H](C)Cn2cnc3c(N)ncnc32)N[C@@H](C)C(=O)OC(C)C)cc1 (some centres not stated), the Activity (Hepatitis B virus [8]) was 65.32%, the EC50 (Hepatitis B virus [21]) was 0.186 µM and the CC50 at 72 h [22] was over 500 µM.
For COc1ccc(COP(=O)(CO[C@H](C)Cn2cnc3c(N)ncnc32)N[C@@H](C)C(=O)OC(C)C)cc1 (some centres not stated), the Activity (Hepatitis B virus [8]) was 41.64% and the CC50 at 72 h [22] was over 500 µM.
CC(C)OC(=O)[C@H](C)NP(=O)(CO[C@H](C)Cn1cnc2c(N)ncnc21)OCc1cccc(Cl)c1 (some centres not stated) gave an Activity (Hepatitis B virus [8]) of 73.95%, an EC50 (Hepatitis B virus [21]) of 0.047 µM and a CC50 at 72 h [22] of over 500 µM.
In the case of Cc1ccccc1COP(=O)(CO[C@H](C)Cn1cnc2c(N)ncnc21)N[C@@H](C)C(=O)OC(C)C (stereo in doubt; 1a-2), the Activity (Hepatitis B virus [8]; 144 h, 1 µM) is reported as 85.4%.
Work on CC(C)OC(=O)[C@H](C)NP(=O)(CO[C@H](C)Cn1cnc2c(N)ncnc21)OCc1ccc(C(F)(F)F)cc1 (some centres not stated) yielded an Activity (Hepatitis B virus [8]) of 63.45%, an EC50 (Hepatitis B virus [21]) of 0.147 µM and a CC50 at 72 h [22] of over 500 µM.
COC(=O)[C@H](C)NP(=O)(CO[C@H](C)Cn1cnc2c(N)ncnc21)OCc1ccccc1C (some centres not stated) showed an Activity (Hepatitis B virus [8]) of 65.23%, an EC50 (Hepatitis B virus [21]) of 0.618 µM and a CC50 at 72 h [22] of over 500 µM.
With CC(C)OC(=O)[C@H](C)NP(=O)(CO[C@H](C)Cn1cnc2c(N)ncnc21)OCc1ccc(Br)cc1 (some centres not stated) the CC50 at 72 h [22] was over 500 µM.
For CC(C)OC(=O)[C@H](C)NP(=O)(CO[C@H](C)Cn1cnc2c(N)ncnc21)OCc1ccccc1 (some centres not stated), the Activity (Hepatitis B virus [8]) was 47.14% and the CC50 at 72 h [22] was over 500 µM.
COc1ccccc1COP(=O)(CO[C@H](C)Cn1cnc2c(N)ncnc21)N[C@@H](C)C(=O)OC(C)C (some centres not stated) gave an Activity (Hepatitis B virus [8]) of 53.33% and a CC50 at 72 h [22] of over 500 µM.
Compound CC(C)OC(=O)[C@H](C)NP(=O)(CO[C@H](C)Cn1cnc2c(N)ncnc21)OCc1ccccc1[N+](=O)[O-] (some centres not stated) has an Activity (Hepatitis B virus [8]) of 79.74%, an EC50 (Hepatitis B virus [21]) of 0.078 µM and a CC50 at 72 h [22] of over 500 µM.
For Cc1ccccc1COP(=O)(CO[C@H](C)Cn1cnc2c(N)ncnc21)N[C@@H](C)C(=O)OC1CCCC1 (some centres not stated), the Activity (Hepatitis B virus [8]) was 41.01% and the CC50 at 72 h [22] was over 500 µM.
Work on CCCOC(=O)[C@H](C)NP(=O)(CO[C@H](C)Cn1cnc2c(N)ncnc21)OCc1ccccc1C (some centres not stated) yielded an Activity (Hepatitis B virus [8]) of 14.35% and a CC50 at 72 h [22] of over 500 µM.
